In PubChem BioAssay (NCI) one finds TGI data, which are given here for eight molecules.

SMILES strings stand for the structures.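 Briefly, cells in 96-well plates were exposed to five compound concentrations for 48 h, and endpoints were estimated by linear interpolation. TGI marks complete inhibition of growth.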

Test systems include NCI-H23 lung; MCF7 breast; SN12C renal; SR leukemia; A549 NSCLC; MDA-N; HL-60(TB) leukemia; COLO 205 colon; IGROV1 ovarian; BT-549 breast; SK-MEL-2 melanoma; NCI/ADR-RES ovarian; HOP-62 NSCLC; SNB-75 CNS; SK-MEL-5 melanoma; HS 578T breast; ACHN renal; EKVX NSCLC; U251 CNS; NCI-H226 lung.
Common to all, as to assay: NCI anticancer screen, dose series, 48 h

`CC(=O)OCC1OC(n2c(C)c(N=Nc3ccccc3)c(C)c(C#N)c2=S)C(OC(C)=O)C(OC(C)=O)C1OC(C)=O` (stereo not drawn): the TGI in the assay on NCI-H23 lung, with MCF7 breast, in the assay with SN12C renal, in the assay with SR leukemia, in the assay on A549 NSCLC and with MDA-N was > 100 µM each time. Besides, the TGI is > 100 µM in the assay on HL-60(TB) leukemia; > 100 µM with COLO 205 colon; > 100 µM in the assay on IGROV1 ovarian; > 100 µM with BT-549 breast; 62.2 µM in the assay with SK-MEL-2 melanoma; > 100 µM in the assay on NCI/ADR-RES ovarian. Moreover, the TGI is 34.5 µM with HOP-62 NSCLC; 7.03 µM in the assay with SNB-75 CNS; > 100 µM with SK-MEL-5 melanoma; 44.8 µM in the assay with HS 578T breast; > 100 µM with ACHN renal.
As to `COc1ccccc1C(C1=C(O)COC1=O)c1cc2c(cc1OC(C)=O)OCO2` (stereo not drawn), the TGI in the assay on EKVX NSCLC, in the assay on U251 CNS, in the assay with NCI-H23 lung, with MCF7 breast, with SN12C renal and in the assay on SR leukemia was > 100 µM throughout. In addition, the TGI in the assay on A549 NSCLC, in the assay with MDA-N, in the assay with HL-60(TB) leukemia, in the assay on COLO 205 colon, with IGROV1 ovarian and with BT-549 breast was > 100 µM throughout. Moreover, the TGI with NCI/ADR-RES ovarian, in the assay with HOP-62 NSCLC, in the assay on SNB-75 CNS, in the assay on SK-MEL-5 melanoma, in the assay on NCI-H226 lung and in the assay on HS 578T breast was > 100 µM throughout. Besides, the TGI in the assay on ACHN renal was > 100 µM.
In the case of `O=C1c2cccnc2S(=O)N1Cc1ccccc1` (stereo not drawn), the TGI with EKVX NSCLC, in the assay with U251 CNS, in the assay on NCI-H23 lung, in the assay on MCF7 breast, in the assay on SN12C renal and in the assay on SR leukemia was > 100 µM throughout. Also, the TGI in the assay with A549 NSCLC, in the assay with MDA-N, in the assay on COLO 205 colon, with IGROV1 ovarian, in the assay on BT-549 breast and in the assay on NCI/ADR-RES ovarian was > 100 µM each time. The TGI in the assay on SNB-75 CNS, in the assay with SK-MEL-5 melanoma, in the assay on NCI-H226 lung, in the assay with HS 578T breast and in the assay on ACHN renal was > 100 µM throughout.
Take `COc1ccc(-c2c(C#N)c(-c3ccc(C)cc3)n(NS(=O)(=O)c3ccccc3)c(=O)c2C#N)cc1`: the TGI with EKVX NSCLC, in the assay with U251 CNS, in the assay with MCF7 breast, in the assay on SN12C renal, with A549 NSCLC and in the assay on MDA-N was > 100 µM in each case. The TGI with HL-60(TB) leukemia was 52.3 µM; in the assay on COLO 205 colon, > 100 µM; with IGROV1 ovarian it was > 100 µM; in the assay with BT-549 breast it was > 100 µM; in the assay with SK-MEL-2 melanoma it was > 100 µM; in the assay with NCI/ADR-RES ovarian, > 100 µM. Also, the TGI with HOP-62 NSCLC is > 100 µM; in the assay with SNB-75 CNS, > 100 µM; with SK-MEL-5 melanoma, 44.8 µM; in the assay with NCI-H226 lung it was > 100 µM; in the assay on HS 578T breast, > 100 µM; in the assay with ACHN renal it was > 100 µM.
With `CN(/N=C/c1cccs1)c1ccc(Cl)cc1[N+](=O)[O-]`, the TGI with EKVX NSCLC is > 100 µM; in the assay with U251 CNS, 59.5 µM; with NCI-H23 lung, > 100 µM; with MCF7 breast it was > 100 µM; with SN12C renal, > 100 µM; in the assay with SR leukemia, > 100 µM. The TGI is > 100 µM with A549 NSCLC; > 100 µM with MDA-N; 54.1 µM in the assay on HL-60(TB) leukemia; > 100 µM in the assay with IGROV1 ovarian; > 100 µM in the assay with BT-549 breast; 66.7 µM in the assay with NCI/ADR-RES ovarian. Further, the TGI with HOP-62 NSCLC is > 100 µM; in the assay with SNB-75 CNS it was > 100 µM; in the assay with SK-MEL-5 melanoma it was > 100 µM; with NCI-H226 lung, 97.3 µM; with HS 578T breast, 76.2 µM; in the assay on ACHN renal, > 100 µM.
On to `NNC(=O)c1ccccc1Nc1ccccc1C(=O)NN`, for which the TGI with EKVX NSCLC, in the assay with U251 CNS, in the assay with NCI-H23 lung, in the assay with MCF7 breast, with SN12C renal and in the assay with A549 NSCLC was > 100 µM each time. Moreover, the TGI with MDA-N, with HL-60(TB) leukemia, in the assay with COLO 205 colon, in the assay on IGROV1 ovarian, in the assay with BT-549 breast and in the assay with SK-MEL-2 melanoma was > 100 µM each time. Further, the TGI with NCI/ADR-RES ovarian, in the assay on HOP-62 NSCLC, in the assay with SNB-75 CNS, in the assay with SK-MEL-5 melanoma, in the assay with NCI-H226 lung and in the assay on HS 578T breast was > 100 µM each time. The TGI with ACHN renal was > 100 µM.
For the molecule `N#CC1=C(S)N(C2OC(CO)C(O)C(O)C2O)C(c2ccccc2)=CC1c1ccccc1` (stereo not drawn), the TGI in the assay with U251 CNS, in the assay with NCI-H23 lung, with MCF7 breast, in the assay with SN12C renal, in the assay on SR leukemia and with A549 NSCLC was > 100 µM in each case. For the same molecule, the TGI in the assay on MDA-N, with HL-60(TB) leukemia, in the assay with COLO 205 colon, with IGROV1 ovarian, with BT-549 breast and in the assay with NCI/ADR-RES ovarian was > 100 µM in each case. For the same molecule, the TGI in the assay on HOP-62 NSCLC was > 100 µM; with SNB-75 CNS, > 100 µM; with SK-MEL-5 melanoma, 43.6 µM; in the assay with NCI-H226 lung it was > 100 µM; in the assay on HS 578T breast it was > 100 µM; in the assay with ACHN renal it was > 100 µM.
`COc1ccc(C(=O)N2CCc3c([nH]c4ccccc34)C2C(=O)O)o1` (stereo not drawn): the TGI in the assay with EKVX NSCLC, in the assay on U251 CNS, in the assay with MCF7 breast, in the assay on SN12C renal, with SR leukemia and in the assay with A549 NSCLC was > 10 µM in each case. Further, the TGI with MDA-N, with HL-60(TB) leukemia, in the assay on COLO 205 colon, with IGROV1 ovarian, in the assay with BT-549 breast and in the assay on NCI/ADR-RES ovarian was > 10 µM each time. Also, the TGI in the assay with HOP-62 NSCLC, in the assay on SNB-75 CNS, in the assay with SK-MEL-5 melanoma, in the assay on HS 578T breast and in the assay on ACHN renal was > 10 µM in each case.
